{"source": "patent US20100179188A1", "about": "“NITROXIDE RADICAL AS TREATMENT FOR NEURODEGENERATION” (Office of Technology Transfer, NIH, priority 2007, published 2010)", "key": {"purified holo-IRP1": {"target": "T1, purified holo-IRP1 (Homo sapiens, UniProt P21399)", "T1 sequence (P21399 1-889)": "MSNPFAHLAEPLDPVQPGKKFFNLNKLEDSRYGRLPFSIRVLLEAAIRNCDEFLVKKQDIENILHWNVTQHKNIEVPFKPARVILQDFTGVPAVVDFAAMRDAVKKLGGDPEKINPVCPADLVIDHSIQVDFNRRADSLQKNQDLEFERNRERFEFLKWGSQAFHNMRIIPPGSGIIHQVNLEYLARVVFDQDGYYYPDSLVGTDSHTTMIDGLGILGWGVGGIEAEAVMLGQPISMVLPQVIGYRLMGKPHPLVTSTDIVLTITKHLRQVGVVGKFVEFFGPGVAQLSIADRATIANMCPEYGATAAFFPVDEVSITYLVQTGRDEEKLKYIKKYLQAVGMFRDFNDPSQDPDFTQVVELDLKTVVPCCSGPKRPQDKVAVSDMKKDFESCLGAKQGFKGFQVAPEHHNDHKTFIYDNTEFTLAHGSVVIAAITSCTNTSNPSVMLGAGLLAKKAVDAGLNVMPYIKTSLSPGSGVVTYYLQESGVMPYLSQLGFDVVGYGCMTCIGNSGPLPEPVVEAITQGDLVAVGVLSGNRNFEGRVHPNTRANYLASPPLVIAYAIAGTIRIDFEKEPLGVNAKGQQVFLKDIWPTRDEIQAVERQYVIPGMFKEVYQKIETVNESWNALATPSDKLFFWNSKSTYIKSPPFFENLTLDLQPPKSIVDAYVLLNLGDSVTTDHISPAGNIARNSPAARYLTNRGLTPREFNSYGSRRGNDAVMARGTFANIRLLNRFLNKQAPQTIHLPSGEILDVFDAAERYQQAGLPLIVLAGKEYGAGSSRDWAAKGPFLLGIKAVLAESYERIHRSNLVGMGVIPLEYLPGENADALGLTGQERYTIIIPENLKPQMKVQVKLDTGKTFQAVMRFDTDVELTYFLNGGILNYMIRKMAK", "assay": "Aconitase activity of purified holo-IRP1, coupled solution assay", "format": "biochemical", "conditions": "purified protein, room air up to 2 h or 3 h at 37° C., vs control samples"}, "IRP1 [1]": {"tested_on": "IRP1", "assay": "Western blot of IRP1 protein in brain-region lysates of IRP2−/− mice", "format": "in vivo", "conditions": "cerebellum, brain-stem and forebrain of IRP2−/− mice, Tempo1 diet vs control diet", "description": "Diet: The mice were weaned 3-4 weeks after their birth. Immediately after weaning, mice were maintained on either a Tempo1-supplemented or control diet. In the Tempo1-supplemented diet, powdered Tempo1 was uniformly mixed with bacon-flavored mouse chow by a “cold press” technique (Bio-Serv, Frenchtown, N.J., USA) at a concentration of 10 mg/g of food. Bacon-flavored chow without Tempo1 was used as the control diet.\nTissue and lysate preparation: Animals were euthanized and tissues were frozen in liquid nitrogen immediately after harvesting, and stored at −80° C. under argon. Experiments were performed on tissues that were pulverized in liquid N2-cooled mortars in an anaerobic chamber, and then lysed in lysis buffer that was deaerated by cyclic freezethaw and air-removal with argon. […]\nLysates made from various brain regions of IRP2−/− mice that were maintained on a control diet or on a Tempo1-supplemented diet were analyzed for IRE binding activity of IRP1 and for TfR1, IRP1, and actin protein levels by gel-shift assay and Western blot. […] FIG. 3b is a quantification of the results as intensity of the bands relative to the control, represented here as 100%. Quantification was performed with the IQMac (IRP1 activity) or NIH Image (protein levels) program. Error bars represent the standard deviation calculated from the results of two different sets of animals."}, "IRP1 [2]": {"tested_on": "IRP1", "assay": "Western blot of IRP1 protein in IRP2−/− embryonic fibroblasts", "format": "cell-based, mouse", "conditions": "0.3 and 1.0 mM, 16 h", "description": "Cells: Embryonic fibroblasts of 13-day old embryos were isolated from wild type, IRP1−/− mice and IRP2−/− mice as described in LaVaute et al. supra. Myc-tagged HEK 293 Tet-on cell line, in which IRP2 expression was inducible, was prepared and cultured as described Bourdon et al., Blood Cells Mol Dis, 31, 247-255 (2003). Erythroblasts were harvested from bone marrow and purified as described in Cooperman et al., Blood, 106, 1084-1091 (2005).\nWestern blotting and antibodies: Protein analysis was carried out as described in LaVaute et al., supra. Equal amounts of protein (20-40 μg/lane) were separated on 13% SDSPAGE and transferred to nitrocellulose membranes. The membrane was blocked with 5% non-fat milk, 0.1% Triton X-100 in PBS and probed at RT in the same blocking buffer. IRP1 antibody was prepared against purified hIRP1 and used at 1:5000 dilution. L-ferritin antibody was raised in rabbit from L-ferritin protein purified from mouse livers. […]\nTo study the effect of Tempo1 on the IRE-binding activity of IRP1, IRP2−/− embryonic fibroblasts that were maintained in culture supplemented with 0, 0.3 and 1.0 mM Tempo1, with or without ferric ammonium citrate (FAC), for 16 h. […] Quantification was performed with the IQMac (IRP1 activity) or NIH Image (protein levels) program. Error bars represent the standard deviation calculated from the results of two different sets of experiments."}}, "note": "“Also recorded” adds a separate entry of the source."}
{"smiles": "CC1(C)CC(O)CC(C)(C)N1[O]", "note": "[Tempo1]", "values": [{"measurement": "loss of aconitase activity", "setting": "purified holo-IRP1", "value": "comparable losses; also recorded: did not enhance"}, {"measurement": "IRP1 protein levels", "setting": "IRP1 [1]", "value": "did not significantly change"}, {"measurement": "IRP1 levels", "setting": "IRP1 [2]", "value": "unchanged"}]}
